As usually defined, the GI50 is the concentration that inhibits growth by half. A word on the IC50: it is the concentration that gives 50% inhibition.

Test system in the first data set: not listed separately
As to the kind of experiment: Apparent permeability across basolateral to apical in human Caco2 cells by LC-MS/MS analysis. The class given is ADME, cell-based. Particulars: Caco-2. On the technique in general: Caco-2 cells form a polarised layer with tight junctions and transporters.
For `COC(=O)c1ccccc1-c1c2ccc(=N)cc-2oc2cc(N)ccc12.Cl` [RHODAMINE123], the permeability is 8.04 10^-6 cm/s.

For a further data set, the system named is A549. As to the kind of experiment: Antiproliferative activity against human A549 cells assessed as growth inhibition incubated for 48 hrs by Sulforhodamine B assay. In kind it is functional.
Settings: not given
(In general: Sulforhodamine B stains cellular protein and so reports cell mass.)
In the case of `CCCN(C(=O)c1cc(C(C)C)c(O)cc1O)c1cccnc1`, the GI50 came to 390 nM.
Same read-out and setting: the same measure for `CC(C)c1cc(C(=O)N(C)c2ccc3[nH]ccc3c2)c(O)cc1O`: 170 nM; for `CC(C)c1cc(C(=O)Nc2ccc3c(ccn3C)c2)c(O)cc1O`: more than 10000 nM.
On the same count and under the same terms, the same measure for `CCCN(C(=O)c1cc(C(C)C)c(O)cc1O)c1ccncc1`: 370 nM; for `CC(C)c1cc(C(=O)N(c2ccncc2)C(C)C)c(O)cc1O`: 190 nM.
`CCN(C(=O)c1cc(C(C)C)c(O)cc1O)c1ccc2[nH]ccc2c1`: the GI50 was found to be 110 nM.
As for `CC(C)c1cc(C(=O)Nc2cccnc2)c(O)cc1O`, the GI50 is more than 10000 nM.
On the same count and under the same terms, next, `C=CCNC1=C2C[C@@H](C)C[C@H](OC)[C@H](O)[C@@H](C)/C=C(\C)[C@H](OC(N)=O)[C@@H](OC)/C=C\C=C(/C)C(=O)NC(=CC1=O)C2=O` [TANESPIMYCIN]: 80 nM.
Still for that read-out and setting: the same measure for `CCCN(C(=O)c1cc(C(C)C)c(O)cc1O)c1ccc2[nH]ccc2c1`: 140 nM; for `CCN(C(=O)c1cc(C(C)C)c(O)cc1O)c1ccc2c(ccn2C)c1`: 80 nM; for `CC(C)c1cc(C(=O)N(c2cccnc2)C(C)C)c(O)cc1O`: 260 nM.
On the same count and under the same terms, the same measure for `CCCN(C(=O)c1cc(C(C)C)c(O)cc1O)c1ccc2c(ccn2C)c1`: 300 nM; for `CCN(C(=O)c1cc(C(C)C)c(O)cc1O)c1ccncc1`: 120 nM.
Take `CC(C)c1cc(C(=O)N(c2ccc3[nH]ccc3c2)C(C)C)c(O)cc1O`: the GI50 is 210 nM.
Take `CC(C)c1cc(C(=O)Nc2ccncc2)c(O)cc1O`: the GI50 is more than 10000 nM.
With `CC(C)c1cc(C(=O)N(C)c2ccc3c(ccn3C)c2)c(O)cc1O`, the GI50 was 280 nM.
Still for that read-out and setting: the same measure for `CC(C)c1cc(C(=O)Nc2ccc3[nH]ccc3c2)c(O)cc1O`: more than 10000 nM.

The test system of another data set is HCT-116. As to the kind of experiment: Antiproliferative activity against human HCT116 cells assessed as growth inhibition incubated for 48 hrs by Sulforhodamine B assay. The class given is functional.
Settings: not given
`CC(C)c1cc(C(=O)N(C)c2ccc3[nH]ccc3c2)c(O)cc1O`: the GI50 was determined as 1000 nM.
Still for that read-out and setting: the same measure for `CCN(C(=O)c1cc(C(C)C)c(O)cc1O)c1ccc2[nH]ccc2c1`: 370 nM; for `C=CCNC1=C2C[C@@H](C)C[C@H](OC)[C@H](O)[C@@H](C)/C=C(\C)[C@H](OC(N)=O)[C@@H](OC)/C=C\C=C(/C)C(=O)NC(=CC1=O)C2=O` [TANESPIMYCIN]: 340 nM; for `CCN(C(=O)c1cc(C(C)C)c(O)cc1O)c1ccncc1`: 640 nM.
Turning to `CC(C)c1cc(C(=O)N(C)c2ccc3c(ccn3C)c2)c(O)cc1O`, the GI50 was determined as 700 nM.

The test system of a further data set is Hep 3B2. As to the kind of experiment: Antiproliferative activity against human Hep3B cells assessed as growth inhibition incubated for 48 hrs by Sulforhodamine B assay. In kind it is functional.
Settings: not given
Consider `CC(C)c1cc(C(=O)N(C)c2ccc3[nH]ccc3c2)c(O)cc1O`, for which the GI50 is 180 nM.
Regarding `CCN(C(=O)c1cc(C(C)C)c(O)cc1O)c1ccc2[nH]ccc2c1`, the GI50 came out at 110 nM.
Take `C=CCNC1=C2C[C@@H](C)C[C@H](OC)[C@H](O)[C@@H](C)/C=C(\C)[C@H](OC(N)=O)[C@@H](OC)/C=C\C=C(/C)C(=O)NC(=CC1=O)C2=O` [TANESPIMYCIN]: the GI50 turned out to be 80 nM.
For the compound `COc1c(C)cnc(Cn2cnc3c(Cl)nc(N)nc32)c1C` [BIIB021], the GI50 amounted to 240 nM.
Consider `CCN(C(=O)c1cc(C(C)C)c(O)cc1O)c1ccncc1`, for which the GI50 worked out at 100 nM.
As to `CC(C)c1cc(C(=O)N(C)c2ccc3c(ccn3C)c2)c(O)cc1O`, the concentration for 50% growth inhibition (GI50) turned out to be 570 nM.

A further data set deals with MDA-MB-231. As to the kind of experiment: Antiproliferative activity against human MDA-MB-231 cells assessed as growth inhibition incubated for 48 hrs by Sulforhodamine B assay. The class given is functional.
Settings: not given
`CC(C)c1cc(C(=O)N(C)c2ccc3[nH]ccc3c2)c(O)cc1O`: the GI50 is 70 nM.
On to `CCN(C(=O)c1cc(C(C)C)c(O)cc1O)c1ccc2[nH]ccc2c1`, for which the GI50 stood at 80 nM.
`C=CCNC1=C2C[C@@H](C)C[C@H](OC)[C@H](O)[C@@H](C)/C=C(\C)[C@H](OC(N)=O)[C@@H](OC)/C=C\C=C(/C)C(=O)NC(=CC1=O)C2=O` [TANESPIMYCIN]: the GI50 was found to be 270 nM.
Still for that read-out and setting: the same measure for `COc1c(C)cnc(Cn2cnc3c(Cl)nc(N)nc32)c1C` [BIIB021]: 240 nM; for `CCN(C(=O)c1cc(C(C)C)c(O)cc1O)c1ccncc1`: 80 nM.
As to `CC(C)c1cc(C(=O)N(C)c2ccc3c(ccn3C)c2)c(O)cc1O`, the GI50 was determined as 100 nM.

Test system in the next data set: not listed separately
As to the kind of experiment: Antiproliferative activity against human HUVEC cells assessed as growth inhibition incubated for 48 hrs by Sulforhodamine B assay. In kind it is cell-based.
Settings: not given
For `CC(C)c1cc(C(=O)N(C)c2ccc3[nH]ccc3c2)c(O)cc1O`, the GI50 at 48 h amounted to 570 nM.
On the same count and under the same terms, next, `CCN(C(=O)c1cc(C(C)C)c(O)cc1O)c1ccc2[nH]ccc2c1`: less than 100 nM; `C=CCNC1=C2C[C@@H](C)C[C@H](OC)[C@H](O)[C@@H](C)/C=C(\C)[C@H](OC(N)=O)[C@@H](OC)/C=C\C=C(/C)C(=O)NC(=CC1=O)C2=O` [TANESPIMYCIN]: less than 100 nM.
Still for that read-out and setting: next, `COc1c(C)cnc(Cn2cnc3c(Cl)nc(N)nc32)c1C` [BIIB021]: 1420 nM; `CCN(C(=O)c1cc(C(C)C)c(O)cc1O)c1ccncc1`: less than 100 nM.
Same read-out and setting: next, `CC(C)c1cc(C(=O)N(C)c2ccc3c(ccn3C)c2)c(O)cc1O`: 820 nM.

For the next data set, the target named is Heat shock protein HSP90 (Homo sapiens, UniProt P07900+P08238). As to the kind of experiment: Inhibition of HSP90 (unknown origin) assessed as competition of fluorescently labelled geldanamycin binding after 2 hrs by microplate reader analysis.
Settings: not given
The class given is protein assay.
As for `CC(C)c1cc(C(=O)N(C)c2ccc3[nH]ccc3c2)c(O)cc1O`, the IC50 amounted to 115 nM.
For the compound `CCN(C(=O)c1cc(C(C)C)c(O)cc1O)c1ccc2[nH]ccc2c1`, the IC50 came to 117 nM.
For `CCN(C(=O)c1cc(C(C)C)c(O)cc1O)c1ccncc1`, the IC50 amounted to 109 nM.
Still for that read-out and setting: next, `CC(C)c1cc(C(=O)N(C)c2ccc3c(ccn3C)c2)c(O)cc1O`: 106 nM.

In the next data set the test system is 661W. As to the kind of experiment: Cytotoxicity against mouse 661W cells by MTT based vision related toxicity assay. In kind it is cell-based.
Settings: not given
Regarding `CC(C)c1cc(-c2n[nH]c(=O)n2-c2ccc3c(ccn3C)c2)c(O)cc1O` [GANETESPIB], the Activity was more than 10 µM.
Compound `C=CCNC1=C2C[C@@H](C)C[C@H](OC)[C@H](O)[C@@H](C)/C=C(\C)[C@H](OC(N)=O)[C@@H](OC)/C=C\C=C(/C)C(=O)NC(=CC1=O)C2=O` [TANESPIMYCIN] displayed an Activity of more than 10 µM.
Consider `CCNC(=O)c1noc(-c2cc(C(C)C)c(O)cc2O)c1-c1ccc(CN2CCOCC2)cc1` [LUMINESPIB], for which the Activity was determined as 0.04 µM.
On the same count and under the same terms, the same measure for `COC1=C2C[C@@H](C)C[C@H](OC)[C@H](O)[C@@H](C)/C=C(\C)[C@H](OC(N)=O)[C@@H](OC)/C=C\C=C(/C)C(=O)NC(=CC1=O)C2=O` [GELDANAMYCIN]: 1.65 µM.
In turn, `COc1c(C)cnc(Cn2cnc3c(Cl)nc(N)nc32)c1C` [BIIB021] showed an Activity of more than 10 µM.

Test system in the next data set: not listed separately
As to the kind of experiment: in vitro. The following applies: human, HUVEC cells versus A549 cells.
Description: Therapeutic index, ratio of IC50 for HUVEC cells to IC50 for human A549 cells
For `CC(C)c1cc(C(=O)N(C)c2ccc3[nH]ccc3c2)c(O)cc1O`, the selectivity ratio amounted to 3.4.
The same measure, in the same setting: the same measure for `CCN(C(=O)c1cc(C(C)C)c(O)cc1O)c1ccc2[nH]ccc2c1`: 0.9; for `CCN(C(=O)c1cc(C(C)C)c(O)cc1O)c1ccncc1`: 0.8.
With `CC(C)c1cc(C(=O)N(C)c2ccc3c(ccn3C)c2)c(O)cc1O`, the selectivity ratio was found to be 2.9.

The record behind these values is ChEMBL document CHEMBL4814073, “Ring-opening of five-membered heterocycles conjugated 4-isopropylresorcinol scaffold-based benzamides as HSP90 inhibitors suppressing tumor growth in vitro and in vivo” (Eur J Med Chem, 2021).
